Experimental findings from patent US8859543B2, “Imidazo[1,2-a]pyrazine derivatives and their use for the prevention or treatment of neurological, psychiatric and metabolic disorders and diseases” (Janssen Pharmaceutica NV, priority 2010, dated 2014) are described below.

As a reminder, the ED50 is the dose at which the effect has come halfway, by size or by number of responders.

Read-outs that look alike come from different tables or passages of the source.

The test system of assay [1] is apomorphine-induced stereotypy. Put plainly: Apomorphine-induced stereotypy in rats (APO). In kind it is in vivo. The note with it: Rattus norvegicus. How it is done:
Apomorphine-Induced Stereotypy in Rats (APO)
Apomorphine (1.0 mg/kg, i.v.)-induced stereotypy (compulsive sniffing, licking, chewing) was scored every 5 min. over the first hour after injection of apomorphine, following a 1 hour interval pre-treatment with the test compound. The score system was: (3) pronounced, (2) moderate, (1) slight, and (O) absent.

In assay [2] the target is T1, Rat recombinant PDE10A (rPDE10A2) (Rattus norvegicus, UniProt Q9QYJ6).
T1 construct: made in house; host or cells: Sf9 insect cells, baculovirus
T1 sequence (Q9QYJ6 1-794): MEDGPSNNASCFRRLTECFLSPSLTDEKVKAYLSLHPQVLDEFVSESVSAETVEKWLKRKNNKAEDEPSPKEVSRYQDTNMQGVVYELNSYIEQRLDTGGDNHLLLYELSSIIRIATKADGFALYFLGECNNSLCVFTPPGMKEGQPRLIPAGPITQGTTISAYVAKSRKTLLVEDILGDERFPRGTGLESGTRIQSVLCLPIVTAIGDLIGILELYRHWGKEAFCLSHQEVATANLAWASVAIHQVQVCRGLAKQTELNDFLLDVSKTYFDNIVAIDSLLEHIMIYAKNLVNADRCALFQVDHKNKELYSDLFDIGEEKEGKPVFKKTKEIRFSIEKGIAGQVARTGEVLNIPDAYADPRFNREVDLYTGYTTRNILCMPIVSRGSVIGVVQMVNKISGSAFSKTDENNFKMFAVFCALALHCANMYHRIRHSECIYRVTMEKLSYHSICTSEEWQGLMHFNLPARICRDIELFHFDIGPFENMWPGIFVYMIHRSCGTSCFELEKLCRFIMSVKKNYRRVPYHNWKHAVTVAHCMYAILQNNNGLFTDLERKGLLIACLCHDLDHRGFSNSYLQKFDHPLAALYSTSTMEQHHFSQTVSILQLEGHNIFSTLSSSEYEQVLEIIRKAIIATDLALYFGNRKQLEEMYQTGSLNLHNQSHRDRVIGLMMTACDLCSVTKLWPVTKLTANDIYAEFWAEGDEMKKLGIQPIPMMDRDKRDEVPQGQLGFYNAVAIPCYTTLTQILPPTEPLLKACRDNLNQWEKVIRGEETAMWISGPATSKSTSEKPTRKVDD
The assay can be described thus: In vitro assay PDE10A (SPA, 3H-cAMP). Format: biochemical. The note with it: pIC50 corresponds to the -log IC50 expressed in mol/L; for IC50: read-out: PDE10A2 pIC50 (converted). How it is done:
Rat recombinant PDE10A (rPDE10A2) was expressed in Sf9 cells using a recombinant rPDE10A baculovirus construct. Cells were harvested after 48 h of infection and the rPDE10A protein was purified by metal chelate chromatography on Ni-sepharose 6FF. Tested compounds were dissolved and diluted in 100% DMSO to a concentration 100 fold of the final concentration in the assay. Compound dilutions (0.4 μl) were added in 384 well plates to 20 μl of incubation buffer (50 mM Tris pH 7.8, 8.3 mM MgCl2, 1.7 mM EGTA). 10 μl of rPDE10A enzyme in incubation buffer was added and the reaction was started by addition of 10 μl substrate to a final concentration of 60 nM cAMP and 0.008 μCi ^3H-cAMP. The reaction was incubated for 60 min. at RT. […] After sedimentation of the beads during 30 min. the radioactivity was measured in a Perkin Elmer Topcount scintillation counter and results were expressed as cpm. For blank values the enzyme was omitted from the reaction and replaced by incubation buffer. Control values were obtained by addition of a final concentration of 1% DMSO instead of compound. The same assay principle is applied for the measurement of the affinity of the compound for other members of the PDE family with appropriate modifications in incubation buffer, substrate concentration, incubation time and stop solution.

Setting [3] is: not active at 2.5 or at 10 mg/kg, not further tested, read-out: APO ED50 (not active at threshold dose).

On to `CCC(COC)n1cc(-c2c(C)nc3c(N4CCOCC4)nccn23)cn1` (stereo not drawn) [compound 111], for which the ED50 in assay [1] (setting [3]) is more than 2.5 mg/kg. Besides, the IC50 in assay [2] was 219 nM.
As for `COC[C@H](C)n1cc(-c2c(C)nc3c(-c4ccncc4)nccn23)cn1` [compound 79], in assay [1] (read-out: APO ED50), the median effective dose (ED50) was 5 mg/kg. In assay [2], the IC50 is 107 nM.
In the case of `Cc1nc2c(N3CCOCC3)nccn2c1-c1cnn(Cc2cccnc2)c1` [compound 65], in assay [1] (read-out: APO ED50), the ED50 was 5 mg/kg. The IC50 in assay [2] is 85.1 nM.
In the case of `Cc1nc2c(N3CCOCC3)nccn2c1-c1cnn(C(C)C)c1` [compound 81], in assay [1] (setting [3]), the ED50 was more than 2.5 mg/kg. Further, in assay [2], the “PDE10A2 pIC50” value was found to be 6.95.
In the case of `Cc1nc2c(N3CCOCC3)nccn2c1-c1ccnc(N2CCOCC2)c1` [compound 91], in assay [1] (setting [3]), the ED50 is more than 2.5 mg/kg. Moreover, in assay [2], the IC50 was 135 nM.
Turning to `Cc1nc2c(N3CCOCC3)nccn2c1-c1cnn(CC2CCOCC2)c1` [compound 89], in assay [1] (read-out: APO ED50), the ED50 is not above 10 mg/kg. Further, the IC50 in assay [2] is 135 nM.
Turning to `CCn1cc(-c2c(C)nc3c(N4CCOCC4)nccn23)cn1` [compound 38, 3-(1-Ethyl-1H-pyrazol-4-yl)-2-methyl-8-morpholin-4-yl-imidazo[1,2-a]pyrazine], the ED50 in assay [1] (read-out: APO ED50) was not above 10 mg/kg. In assay [2], the “PDE10A2 pIC50” value came out at 6.63.
`Cc1nc2c(N3CCOCC3)nccn2c1-c1cnn(CCF)c1` [compound 96]: in assay [1] (read-out: APO ED50), the ED50 came out at 5 mg/kg. In addition, the IC50 in assay [2] was 141 nM.
For `Cc1nc2c(N3CCOCC3)nccn2c1-c1cnn(C2CCOC2)c1` (stereo not drawn) [compound 82], in that order: 3.1 mg/kg and 115 nM.
Take `c1cn2c(-c3ccc(N4CCOCC4)nc3)c(C3CC3)nc2c(N2CCOCC2)n1` [compound 63]: in assay [1] (setting [3]), the ED50 is more than 2.5 mg/kg. In addition, the IC50 in assay [2] was 83.2 nM.
Consider `Cc1nc2c(N3CCOCC3)nccn2c1-c1cnn(CC2CCCO2)c1` (single isomer, unassigned) [compound 71], for which the ED50 in assay [1] (read-out: APO ED50) amounted to 5 mg/kg. Further, in assay [2], the IC50 is 95.5 nM.
For `COC[C@@H](C)n1cc(-c2c(C)nc3c(-c4ccncc4)nccn23)cn1` [compound 104], in that order: 5 mg/kg and 170 nM.
On to `COC(C)CCn1cc(-c2c(C)nc3c(N4CCOCC4)nccn23)cn1` (single isomer, unassigned) [compound 84], for which the ED50 in assay [1] (setting [3]) is more than 2.5 mg/kg. Moreover, the IC50 in assay [2] was 117 nM.
Regarding `COCCn1cc(-c2cnc3c(N4CCOCC4)nccn23)cn1` [compound 141], the ED50 in assay [1] (read-out: APO ED50) is 5 mg/kg. Further, the IC50 in assay [2] was 955 nM.
Take `Cc1nc2c(N3CCOCC3)nccn2c1-c1cnn(CC2CC2)c1` [compound 62]: the ED50 in assay [1] (setting [3]) is more than 2.5 mg/kg. For the same compound, the IC50 in assay [2] was 79.4 nM.
`COC(C)(C)CCc1ccc(-c2c(C)nc3c(N4CCOCC4)nccn23)cn1` [compound 29, 3-[6-(3-Methoxy-3-methyl-butyl)-pyridin-3-yl]-2-methyl-8-morpholin-4-yl-imidazo[1,2-a]pyrazine]: the ED50 in assay [1] (read-out: APO ED50) worked out at 1.2 mg/kg. Further, the IC50 in assay [2] was 219 nM.
For `Cc1nc2c(N3CCOCC3)nccn2c1-c1ccc(OCC2CC2)nc1` [compound 134] the same measures were not above 10 mg/kg and 562 nM.
Regarding `Cc1nc2c(N3CCOCC3)nccn2c1-c1cnn(CC(F)F)c1` [compound 56], the ED50 in assay [1] (po, * compound was not soluble and was tested orally as a suspension, read-out: APO ED50) came to 3.1 mg/kg. The IC50 in assay [2] is 57.5 nM.
As to `Cc1nc2c(N3CCOCC3)nccn2c1-c1ccc(OCC(F)(F)F)nc1` [compound 122], in assay [1] (setting [3]), the ED50 was more than 2.5 mg/kg. In addition, the IC50 in assay [2] was 380 nM.
For `CCC(COC)n1cc(-c2c(C)nc3c(N4CCOCC4)nccn23)cn1` (single isomer, unassigned) [compound 74], in that order: more than 2.5 mg/kg and 95.5 nM.
For `Cc1nc2c(N3CCOCC3)nccn2c1-c1ccnc(N2CCCC2)c1` [compound 99] the same measures were more than 2.5 mg/kg and 151 nM.
As to `CCOC(C)(C)c1ccc(-c2c(C)nc3c(N4CCOCC4)nccn23)cn1` [compound 55], the ED50 in assay [1] (setting [3]) is more than 2.5 mg/kg. In assay [2], the IC50 is 57.5 nM.
As to `COC(C)CCn1cc(-c2c(C)nc3c(N4CCOCC4)nccn23)cn1` (single isomer, unassigned) [compound 61], the ED50 in assay [1] (read-out: APO ED50) worked out at 5 mg/kg. For the same compound, the IC50 in assay [2] is 79.4 nM.
Take `Cc1nc2c(N3CCOCC3)nccn2c1-c1cnn(CC(F)(F)F)c1` [compound 49]: the ED50 in assay [1] (read-out: APO ED50) turned out to be 5 mg/kg. The “PDE10A2 pIC50” value in assay [2] was determined as 7.33.
`COC(C)(C)COc1ccc(-c2c(C)nc3c(N4CCOCC4)nccn23)cn1` [compound 3, 3-[6-(2-Methoxy-2-methyl-propoxy)-pyridin-3-yl]-2-methyl-8-morpholin-4-yl-imidazo[1,2-a]pyrazine]: in assay [1] (read-out: APO ED50), the ED50 was determined as 5 mg/kg. The IC50 in assay [2] was 457 nM.
As for `Cc1nc2c(N3CCOCC3)nccn2c1-c1cnc(C(C)C)[nH]1` [compound 114], the ED50 in assay [1] (setting [3]) is more than 2.5 mg/kg. Also, in assay [2], the IC50 is 263 nM.
For `c1cn2c(-c3ccc(N4CCNCC4)nc3)c(C3CC3)nc2c(N2CCOCC2)n1` [compound 87], in that order: more than 2.5 mg/kg and 126 nM.
For the compound `COC[C@@H](C)n1cc(-c2c(C)nc3c(N4CCOCC4)nccn23)cn1` [compound 110], the ED50 in assay [1] (read-out: APO ED50) came out at 3.1 mg/kg. In addition, the IC50 in assay [2] is 214 nM.
As to `Cc1nc2c(N3CCOCC3)nccn2c1-c1cnn(Cc2ccc3ccccc3n2)c1` [compound 112], the ED50 in assay [1] (setting [3]) was more than 2.5 mg/kg. In addition, the “PDE10A2 pIC50” value in assay [2] was 6.63.
Turning to `Cc1nc2c(-c3ccncc3)nccn2c1-c1cnn(CCO)c1` [compound 138], in assay [1] (setting [3]), the ED50 was more than 2.5 mg/kg. Besides, the IC50 in assay [2] is 724 nM.
`COCCCn1cc(-c2c(C)nc3c(N4CCOCC4)nccn23)cn1` [compound 68]: in assay [1] (read-out: APO ED50), the ED50 turned out to be 3.1 mg/kg. In assay [2], the IC50 was 87.1 nM.
As for `Cc1nc2c(-c3ccncc3)nccn2c1-c1ccc(N2CCOCC2)nc1` [compound 115], the ED50 in assay [1] (read-out: APO ED50) turned out to be 5 mg/kg. Further, in assay [2], the IC50 was 263 nM.
As for `c1cn2c(-c3ccc(C4CCOCC4)nc3)c(C3CC3)nc2c(N2CCOCC2)n1` [compound 83], in assay [1] (setting [3]), the ED50 is more than 2.5 mg/kg. In addition, the IC50 in assay [2] was 115 nM.
For `Cc1nc2c(N3CCOCC3)nccn2c1-c1cnn(CCN2CCOCC2)c1` [compound 116], in that order: more than 2.5 mg/kg and 275 nM.
For `Cc1nc2c(N3CCOCC3)nccn2c1-c1cnn(CC2CCCCO2)c1` (single isomer, unassigned) [compound 58], in that order: more than 2.5 mg/kg and 67.6 nM.
Consider `CC(=O)CCn1cc(-c2c(C)nc3c(N4CCOCC4)nccn23)cn1` [compound 36, 4-[4-(2-Methyl-8-morpholin-4-yl-imidazo[1,2-a]pyrazin-3-yl)-pyrazol-1-yl]-butan-2-one], for which the ED50 in assay [1] (read-out: APO ED50) came out at 3.1 mg/kg. Besides, in assay [2], the IC50 was 138 nM.
`COCCc1ccc(-c2cnc3c(N4CCOCC4)nccn23)cn1` [compound 136]: the ED50 in assay [1] (setting [3]) is more than 2.5 mg/kg. The IC50 in assay [2] was 575 nM.
As to `COCCn1cc(-c2c(C#N)nc3c(N4CCOCC4)nccn23)cn1` [compound 40, 3-[1-(2-Methoxy-ethyl)-1H-pyrazol-4-yl]-8-morpholin-4-yl-imidazo[1,2-a]pyrazine-2-carbonitrile], the ED50 in assay [1] (read-out: APO ED50) stood at 5 mg/kg. In addition, in assay [2], the “PDE10A2 pIC50” value is recorded as 7.07.
Regarding `Cc1nc2c(N3CCOCC3)nccn2c1-c1cnn(CC2CCCO2)c1` (single isomer, unassigned) [compound 90], the ED50 in assay [1] (setting [3]) was more than 2.5 mg/kg. Also, the IC50 in assay [2] is 135 nM.
